Source: the supplement of paper PMC11061612

What was measured:
Test in all cases: Bliss excess, mean over the matrix (fraction); higher = more synergy
[1] = system: 22RV1 (Prostate Carcinoma)
Summary of the method: (§1)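 After 24 hours at 37°C and 5% CO2 in 1536-well plates, cells in DMEM/F12 or RPMI plus 10% FBS received two-drug dose matrices for 72 hours. Viability came from CellTiter-Glo 2.0 luminescence and was scaled as inhibition, anchored at 0 by vehicle wells and at 1 by blank wells. Combination Emax is taken as the second-highest inhibition in the matrix, and Bliss excess as the observed combination effect less EA + EB − EA·EB, with EA and EB the single-agent effects.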

5637 (Bladder Carcinoma) = system: 5637 (Bladder Carcinoma)
Summary of the method: as §1

A101D (Melanoma) = system: A101D (Melanoma)
Summary of the method: as §1

[2] = system: A253 (Head and Neck Carcinoma)
Summary of the method: as §1

AU565 (Breast Carcinoma) = system: AU565 (Breast Carcinoma)
Summary of the method: as §1

[3] = system: CA46 (Burkitt's Lymphoma)
Summary of the method: as §1

[4] = system: CESS (Acute Myeloid Leukemia)
Summary of the method: as §1

[5] = system: ESO26 (Esophageal Adenocarcinoma)
Summary of the method: as §1

EW-16 (Ewing's Sarcoma) = system: EW-16 (Ewing's Sarcoma)
Summary of the method: as §1

[6] = system: G-402 (Other Solid Carcinomas)
Summary of the method: as §1

[7] = system: GA-10 (Burkitt's Lymphoma)
Summary of the method: as §1

[8] = system: GCT (Other Solid Carcinomas)
Summary of the method: as §1

[9] = system: HCC1395 (Breast Carcinoma)
Summary of the method: as §1

IM-9 (Non-Cancerous) = system: IM-9 (Non-Cancerous)
Summary of the method: as §1

[10] = system: JIMT-1 (Breast Carcinoma)
Summary of the method: as §1

[11] = system: JVM-2 (B-Cell Non-Hodgkin's Lymphoma)
Summary of the method: as §1

[12] = system: KYSE-140 (Esophageal Squamous Cell Carcinoma)
Summary of the method: as §1

[13] = system: LS-411N (Colorectal Carcinoma)
Summary of the method: as §1

[14] = system: MHH-ES-1 (Ewing's Sarcoma)
Summary of the method: as §1

[15] = system: OACp4C (Esophageal Adenocarcinoma)
Summary of the method: as §1

| SMILES | Bliss excess [1] | Bliss excess (5637 (Bladder Carcinoma)) | Bliss excess (A101D (Melanoma)) | Bliss excess [2] | Bliss excess (AU565 (Breast Carcinoma)) | Bliss excess [3] | Bliss excess [4] | Bliss excess [5] | Bliss excess (EW-16 (Ewing's Sarcoma)) | Bliss excess [6] | Bliss excess [7] | Bliss excess [8] | Bliss excess [9] | Bliss excess (IM-9 (Non-Cancerous)) | Bliss excess [10] | Bliss excess [11] | Bliss excess [12] | Bliss excess [13] | Bliss excess [14] | Bliss excess [15] |
| --- | --- | --- | --- | --- | --- | --- | --- | --- | --- | --- | --- | --- | --- | --- | --- | --- | --- | --- | --- | --- |
| NC1(C(=O)N[C@@H](CCO)c2ccc(Cl)cc2)CCN(c2ncnc3[nH]ccc23)CC1 [Capivasertib] + CCN(CCO)CCCOc1ccc2c(Nc3cc(CC(=O)Nc4cccc(F)c4)[nH]n3)ncnc2c1 [AZD2811] (first compound max 10 µM, 7x7, partner max 1 µM) | -0.0373 | -0.101 | -0.0282 | -0.0346 | -0.0229 | -0.0519 | 0.0217 | -0.0308 | -0.014 | -0.0502 | -0.111 | -0.0017 | 0.001 | -0.0686 | 0.0154 | -0.142 | -0.0096 | -0.0556 | -0.0132 | -0.0332 |
| CC(=O)Nc1cccc(-n2c(=O)n(C3CC3)c(=O)c3c(Nc4ccc(I)cc4F)n(C)c(=O)c(C)c32)c1 [Trametinib] + Cc1nc(-c2cn3c(n2)-c2ccc(-c4cnn(C(C)(C)C(N)=O)c4)cc2OCC3)n(C(C)C)n1 [Taselisib] (first compound max 1 µM, 7x7, partner max 10 µM) | 0.0551 | 0.292 | 0.0168 | 0.145 | 0.102 | 0.0404 | 0.219 | 0.147 | 0.0772 | 0.0104 | 0.0619 | 0.148 | 0.0616 | 0.0008 | 0.11 | 0.0171 | -0.0046 | 0.125 | 0.0141 | 0.0416 |
| C=CCn1c(=O)c2cnc(Nc3ccc(N4CCN(C)CC4)cc3)nc2n1-c1cccc(C(C)(C)O)n1 [AZD1775] + O=C(c1cc(Cc2n[nH]c(=O)c3ccccc23)ccc1F)N1CCN(C(=O)C2CC2)CC1 [Olaparib] (first compound max 1 µM, partner max 10 µM) | -0.0296 | -0.0551 | -0.0542 | 0.0364 | -0.0195 | -0.0612 | -0.0054 | -0.0518 | -0.0129 | -0.0761 | -0.0462 | -0.0327 | -0.0557 | -0.0305 | -0.0795 | 0.0055 | -0.0418 | -0.0608 | -0.0196 | -0.055 |
| COc1nnc2ccc(N3CCC(c4ccc(OCCN5CCN(C)C(=O)[C@H]5C)cc4)CC3)nn12 [AZD5153] + Cn1cnc2c(F)c(Nc3ccc(Br)cc3Cl)c(C(=O)NOCCO)cc21 [Selumetinib] (first compound max 1 µM, 7x7, partner max 10 µM) | 0.0239 | 0.0132 | -0.081 | 0.0009 | 0.0278 | -0.0282 | -0.0651 | -0.0727 | -0.0456 | -0.0421 | -0.0813 | -0.0506 | -0.024 | 0.0322 | -0.0082 | 0.0655 | -0.028 | 0.0602 | -0.0114 | 0.101 |
| CC1(C)CCC(CN2CCN(c3ccc(C(=O)NS(=O)(=O)c4ccc(NCC5CCOCC5)c([N+](=O)[O-])c4)c(Oc4cnc5[nH]ccc5c4)c3)CC2)=C(c2ccc(Cl)cc2)C1 [Venetoclax] + Cc1cc2ncnn2cc1Nc1ncc2c(n1)n(C1CCOCC1)c(=O)n2C [AZD7648] (first compound max 1 µM, 7x7, partner max 10 µM) | -0.0313 | -0.0504 | -0.0394 | 0.0072 | 0.0266 | -0.0454 | -0.0288 | -0.0336 | -0.0534 | -0.0359 | -0.0603 | -0.046 | -0.0491 | 0.0403 | -0.0248 | -0.025 | -0.0044 | -0.0184 | -0.0189 | -0.0027 |
| CC1(C)CCC(CN2CCN(c3ccc(C(=O)NS(=O)(=O)c4ccc(NCC5CCOCC5)c([N+](=O)[O-])c4)c(Oc4cnc5[nH]ccc5c4)c3)CC2)=C(c2ccc(Cl)cc2)C1 [Venetoclax] + C=CCn1c(=O)c2cnc(Nc3ccc(N4CCN(C)CC4)cc3)nc2n1-c1cccc(C(C)(C)O)n1 [AZD1775] (first compound max 1 µM, partner max 1 µM) | 0.0156 | -0.0414 | -0.0188 | 0.0263 | 0.0756 | -0.0322 | -0.0236 | -0.0373 | -0.0504 | -0.0625 | -0.0553 | -0.0339 | 0.0202 | 0.0228 | -0.0568 | 0.0333 | -0.0037 | -0.0856 | -0.001 | -0.03 |
| CC1(C)CCC(CN2CCN(c3ccc(C(=O)NS(=O)(=O)c4ccc(NCC5CCOCC5)c([N+](=O)[O-])c4)c(Oc4cnc5[nH]ccc5c4)c3)CC2)=C(c2ccc(Cl)cc2)C1 [Venetoclax] + CN(C)CCCOc1ccc(-c2ccc3ncc4c(c3c2)n(C2CCOCC2)c(=O)n4C)cn1 [AZD0156] (first compound max 1 µM, 7x7, partner max 1 µM) | -0.0277 | -0.0273 | 0.0088 | 0.0119 | 0.0206 | -0.026 | -0.0638 | -0.0063 | -0.0659 | -0.0774 | -0.0585 | -0.0404 | -0.0304 | 0.0254 | -0.0819 | 0.0143 | 0.0177 | -0.0214 | 0.0177 | -0.0468 |
